Data from ChEMBL document CHEMBL5042488, “Synthesis, biological, and structural explorations of a series of μ-opioid receptor (MOR) agonists with high G protein signaling bias” (Eur J Med Chem, 2022).
Calls of active or inactive are those of the source.

Legend:
[1] = Metabolic stability in human liver microsomes assessed as intrinsic clearance preincubated for 10 mins followed by NADPH addition and measured after 60 mins by LC-MS/MS analysis; format: ADME, Microsome; conditions: time 70 min, read-out: CLH
Mu-type opioid receptor [2] = biological target: T1, Mu-type opioid receptor (Homo sapiens, UniProt P35372); assay: Agonist activity at mu opioid receptor (unknown origin) assessed as maximal cAMP level incubated for 40 mins by spectrophotometry relative to DAMGO; format: functional; conditions: filed as agonist
Mu-type opioid receptor [3] = biological target: T1, Mu-type opioid receptor; assay: Agonist activity at mu opioid receptor (unknown origin) assessed as maximal beta arrestin-2 recruitment incubated for 3 days by PathHunter assay relative to DAMGO; format: functional; conditions: time 3.0 day
Mu-type opioid receptor [4] = biological target: T1, Mu-type opioid receptor; assay: Agonist activity at mu opioid receptor (unknown origin) assessed as increase in cAMP level incubated for 40 mins by spectrophotometry; format: functional
Mu-type opioid receptor [5] = biological target: T1, Mu-type opioid receptor; assay: Agonist activity at mu opioid receptor (unknown origin) assessed as beta arrestin-2 recruitment incubated for 3 days by PathHunter assay; format: functional
[6] = Metabolic stability in rat liver microsomes assessed as intrinsic clearance preincubated for 10 mins followed by NADPH addition and measured after 60 mins by LC-MS/MS analysis; format: ADME, Microsome; conditions: time 70 min, read-out: CLH
[7] = Apparent permeability across apical to basal membrane in human Caco-2 cells; format: ADME, cell-based
[8] = Metabolic stability in dog liver microsomes assessed as intrinsic clearance preincubated for 10 mins followed by NADPH addition and measured after 60 mins by LC-MS/MS analysis; format: ADME, Canis lupus familiaris, Microsome; conditions: time 70 min, read-out: CLH
[9] = Plasma protein binding in human plasma assessed as unbound fraction; format: ADME, cell-free
[10] = Plasma protein binding in rat plasma assessed as unbound fraction; format: ADME, cell-free
[11] = Plasma protein binding in dog plasma assessed as unbound fraction; format: ADME, cell-free, Canis lupus familiaris
Cytochrome P450 2C19 = Cytochrome P450 2C19 (Homo sapiens, UniProt P33261); assay: Inhibition of CYP2C19 (unknown origin); format: ADME
[12] = Cmax in Sprague-Dawley rat at 2 mg/kg, iv by LC-MS/MS analysis; format: ADME, organism-based; parameters: route intravenous, dose 2 mg/kg; conditions: in vivo
[13] = AUClast in Sprague-Dawley rat at 2 mg/kg, iv by LC-MS/MS analysis; format: ADME, organism-based; parameters: time 0 - last, route intravenous, dose 2 mg/kg; conditions: in vivo
[14] = AUC(0 to infinity) in Sprague-Dawley rat at 2 mg/kg, iv by LC-MS/MS analysis; format: ADME, organism-based; parameters: route intravenous, time infinity, dose 2 mg/kg; conditions: in vivo
[15] = Apparent volume of distribution in Sprague-Dawley rat at 2 mg/kg, iv by LC-MS/MS analysis; format: ADME, organism-based; conditions: in vivo, read-out: Vz
[16] = Half life in Sprague-Dawley rat at 2 mg/kg, iv by LC-MS/MS analysis; format: ADME, organism-based; conditions: in vivo
[17] = MRT in Sprague-Dawley rat at 2 mg/kg, iv by LC-MS/MS analysis; format: ADME, organism-based; conditions: in vivo
Mu-type opioid receptor [18] = biological target: T1, Mu-type opioid receptor; assay: Displacement of [3H]-Diprenorphine from human mu opiod receptor expressed in CHO cells incubated for 1 hr by competition binding assay; format: cell-based
Mu-type opioid receptor [19] = biological target: T1, Mu-type opioid receptor; assay: Agonist activity at human mu opioid receptor expressed in HEK293 assessed as increase in calcium mobilization incubated for 60 mins by FLIPR assay; format: functional, cell-based
[20] = biological target: Delta-type opioid receptor (Homo sapiens, UniProt P41143); assay: Agonist activity at human delta opioid receptor expressed in HEK293 assessed as increase in calcium mobilization incubated for 60 mins by FLIPR assay; format: functional, cell-based
[21] = biological target: Kappa-type opioid receptor (Homo sapiens, UniProt P41145); assay: Agonist activity at human kappa opioid receptor expressed in HEK293 assessed as increase in calcium mobilization incubated for 60 mins by FLIPR assay; format: functional, cell-based
Rattus norvegicus [22] = assay: Antinociceptive activity in Sprague-Dawley rat assessed as increase in paw withdrawal latency at 0.3 mg/kg, sc measured after 30 mins by Hot-plate test; format: functional, organism-based
Rattus norvegicus [23] = assay: Antinociceptive activity in sc dosed Sprague-Dawley rat assessed as increase in thermal pain threshold measured after 30 mins by Hot-plate test; format: functional; conditions: 0.5 h
[24] = Toxicity in Sprague-Dawley rat assessed as effect on respiration at 0.3 mg/kg, sc; format: organism-based; conditions: in vivo
[25] = Toxicity in Sprague-Dawley rat model assessed as effect on blood oxygen levels at […], sc measured after 30 mins by blood gas analyzer; format: organism-based; conditions: in vivo, 0.5 h, dose 0.32 mg/kg
[26] = Drug concentration in Sprague-Dawley rat brain at […], iv measured after 5 mins by LC-MS/MS analysis; format: ADME, organism-based; conditions: dose 0.25 mg/kg, read-out: Drug uptake
[27] = Ratio of drug concentration in brain to plasma of Sprague-Dawley rat at 2 mg/kg, iv measured at […] by LC-MS/MS analysis; format: ADME, organism-based; conditions: time 0.25 hrs
[28] = Drug concentration in Sprague-Dawley rat liver at […],iv measured after 30 mins by LC-MS/MS analysis; format: ADME, organism-based; conditions: in vivo, 0.5 h, dose 0.25 mg/kg
Rattus norvegicus [29] = assay: Antinociceptive activity in Sprague-Dawley rat incision pain model assessed as increase in paw withdrawal latency at 0.125 to 0.5 mg/kg, sc measured after 30 mins by Von Frey filament assay; format: functional; conditions: dose 0.125-0.5 mg/kg
[30] = Half life of compound; format: physicochemical

T1 sequence (P35372 whole entry): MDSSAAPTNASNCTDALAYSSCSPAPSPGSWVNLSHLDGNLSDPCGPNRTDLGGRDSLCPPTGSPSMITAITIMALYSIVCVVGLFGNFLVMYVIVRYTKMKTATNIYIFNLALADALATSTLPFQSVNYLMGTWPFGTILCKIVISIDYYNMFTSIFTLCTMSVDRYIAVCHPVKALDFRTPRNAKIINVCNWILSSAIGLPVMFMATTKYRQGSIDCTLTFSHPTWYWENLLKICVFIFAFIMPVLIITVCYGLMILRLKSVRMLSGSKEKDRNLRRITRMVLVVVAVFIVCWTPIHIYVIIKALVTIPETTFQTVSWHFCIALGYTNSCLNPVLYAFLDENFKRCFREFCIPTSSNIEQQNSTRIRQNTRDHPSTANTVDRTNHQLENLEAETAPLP
Chain of Delta-type opioid receptor (P41143 whole entry): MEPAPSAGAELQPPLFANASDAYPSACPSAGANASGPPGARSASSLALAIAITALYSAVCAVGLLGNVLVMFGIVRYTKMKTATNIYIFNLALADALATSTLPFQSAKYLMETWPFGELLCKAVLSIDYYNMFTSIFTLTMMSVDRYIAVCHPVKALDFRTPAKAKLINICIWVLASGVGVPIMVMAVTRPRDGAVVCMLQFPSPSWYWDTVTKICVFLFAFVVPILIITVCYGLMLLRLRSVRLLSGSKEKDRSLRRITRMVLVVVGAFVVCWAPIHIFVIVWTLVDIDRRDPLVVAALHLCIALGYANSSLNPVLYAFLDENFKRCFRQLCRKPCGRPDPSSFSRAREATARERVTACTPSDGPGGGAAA
Chain of Cytochrome P450 2C19 (P33261 whole entry): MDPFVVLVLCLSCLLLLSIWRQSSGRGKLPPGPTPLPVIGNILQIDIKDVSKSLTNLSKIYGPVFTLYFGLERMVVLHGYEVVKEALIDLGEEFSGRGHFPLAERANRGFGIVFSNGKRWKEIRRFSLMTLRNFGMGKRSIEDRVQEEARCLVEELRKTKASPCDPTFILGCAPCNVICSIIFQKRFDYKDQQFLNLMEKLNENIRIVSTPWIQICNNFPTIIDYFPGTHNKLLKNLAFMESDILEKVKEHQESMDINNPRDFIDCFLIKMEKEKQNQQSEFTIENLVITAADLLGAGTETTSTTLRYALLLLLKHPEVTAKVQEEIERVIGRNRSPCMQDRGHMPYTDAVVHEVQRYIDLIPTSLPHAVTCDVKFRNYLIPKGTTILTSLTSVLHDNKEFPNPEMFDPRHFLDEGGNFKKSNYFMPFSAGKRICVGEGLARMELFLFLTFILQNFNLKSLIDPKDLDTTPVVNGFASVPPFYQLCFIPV
Chain of Kappa-type opioid receptor (P41145 whole entry): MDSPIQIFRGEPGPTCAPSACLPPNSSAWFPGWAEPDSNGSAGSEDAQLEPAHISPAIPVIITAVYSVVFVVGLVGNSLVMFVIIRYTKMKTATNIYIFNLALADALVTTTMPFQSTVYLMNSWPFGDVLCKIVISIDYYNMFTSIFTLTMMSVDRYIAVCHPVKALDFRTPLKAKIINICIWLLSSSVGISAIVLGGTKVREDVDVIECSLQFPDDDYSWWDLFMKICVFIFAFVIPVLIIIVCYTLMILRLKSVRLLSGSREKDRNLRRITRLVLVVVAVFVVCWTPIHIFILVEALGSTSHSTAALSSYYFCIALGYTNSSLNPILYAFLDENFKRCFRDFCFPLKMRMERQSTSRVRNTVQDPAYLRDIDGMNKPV

SMILES: C[C@@H](Cc1ccsc1)NC(=O)NC[C@H](Cc1ccc(O)cc1)N(C)C
- CLint scaled [1]: < 8.6 mL/min/kg
- Emax (Mu-type opioid receptor [2]): 89.2%
- Emax (Mu-type opioid receptor [3]): 5%

SMILES: Fc1ccc([C@]2(CCNCc3cncc(Cl)c3)CCOC3(CCOC3)C2)cc1 (stereo partly drawn)
- EC50 (Mu-type opioid receptor [4]): 12.8 nM
- Emax (Mu-type opioid receptor [2]): 90.8%
- EC50 (Mu-type opioid receptor [5]): > 30000 nM

SMILES: Fc1ccc(CNCC[C@@]2(c3ccccn3)CCOC3(CCOC3)C2)cc1Cl (stereo partly drawn)
- EC50 (Mu-type opioid receptor [4]): 26.5 nM
- Emax (Mu-type opioid receptor [2]): 92.3%
- EC50 (Mu-type opioid receptor [5]): > 30000 nM

SMILES: Cc1ccsc1CNCC[C@@]1(c2ccc(F)cc2)CCOC2(CCOC2)C1 (stereo partly drawn)
- EC50 (Mu-type opioid receptor [4]): 4.1 nM
- Emax (Mu-type opioid receptor [2]): 61.2%
- EC50 (Mu-type opioid receptor [5]): > 30000 nM
- Emax (Mu-type opioid receptor [3]): 2.9%

SMILES: c1ccc([C@]2(CCNCc3scc4c3COC4)CCOC3(CCCC3)C2)nc1
- EC50 (Mu-type opioid receptor [4]): 2 nM
- CLint scaled [1]: 230 mL/min/kg
- Emax (Mu-type opioid receptor [2]): 90.5%
- EC50 (Mu-type opioid receptor [5]): 27 nM
- Emax (Mu-type opioid receptor [3]): 4.4%

SMILES: FC1(F)CCc2c(csc2CNCC[C@@]2(c3ccccn3)CCOC3(CCOC3)C2)C1 (stereo partly drawn)
- EC50 (Mu-type opioid receptor [4]): 0.5 nM
- Emax (Mu-type opioid receptor [2]): 101%
- EC50 (Mu-type opioid receptor [5]): 69 nM
- Emax (Mu-type opioid receptor [3]; filed as agonist): 43.1%

SMILES: Fc1ccc([C@]2(CCNCc3scc4c3CCC4)CCOC3(CCOCC3)C2)nc1
- EC50 (Mu-type opioid receptor [4]): 178 nM
- Emax (Mu-type opioid receptor [2]): 125%
- EC50 (Mu-type opioid receptor [5]): 725 nM
- Emax (Mu-type opioid receptor [3]; filed as agonist): 125%

SMILES: Fc1ccc([C@]2(CCNCc3scc4c3COC4)CCOC3(CCOC3)C2)cc1 (stereo partly drawn)
- EC50 (Mu-type opioid receptor [4]): 6.8 nM
- CLint scaled [1]: 191 mL/min/kg
- EC50 (Mu-type opioid receptor [5]): > 30000 nM

SMILES: Cc1cc(C)cc(CNCC[C@@]2(c3ccccn3)CCOC3(CCOC3)C2)c1 (stereo partly drawn)
- EC50 (Mu-type opioid receptor [4]): 11.6 nM
- Emax (Mu-type opioid receptor [2]): 96.6%
- EC50 (Mu-type opioid receptor [5]): > 30000 nM
- Emax (Mu-type opioid receptor [3]): 4.6%

SMILES: Fc1ccc([C@]2(CCNCc3scc4c3CCCC4)CCO[C@]3(CCOC3)C2)nc1
- EC50 (Mu-type opioid receptor [4]): 0.2 nM
- CLint scaled [1]: 338 mL/min/kg
- Emax (Mu-type opioid receptor [2]): 99.5%
- EC50 (Mu-type opioid receptor [5]): > 30000 nM

SMILES: c1ccc([C@]2(CCNCc3ccc4ccccc4c3)CCOC3(CCOC3)C2)nc1 (stereo partly drawn)
- EC50 (Mu-type opioid receptor [4]): 174 nM
- Emax (Mu-type opioid receptor [2]): 124%
- EC50 (Mu-type opioid receptor [5]): > 30000 nM
- Emax (Mu-type opioid receptor [3]): 1.1%

SMILES: Fc1ccc([C@]2(CCNCc3scc4c3CCC4)CCOC3(CCOC3)C2)cc1 (stereo partly drawn)
- EC50 (Mu-type opioid receptor [4]): 0.07 nM
- CLint scaled [1]: 157 mL/min/kg
- EC50 (Mu-type opioid receptor [5]): > 30000 nM

SMILES: Fc1ccc([C@]2(CCNCc3cccc(Cl)c3)CCO[C@]3(CCOC3)C2)nc1
- EC50 (Mu-type opioid receptor [4]): 0.35 nM
- CLint scaled [6]: 176 mL/min/kg
- Papp A→B [7]: 5.2 ×10⁻⁶ cm/s
- Emax (Mu-type opioid receptor [2]): 91.4%
- CLint scaled [8]: 152 mL/min/kg
- fraction unbound [9]: 0.34
- fraction unbound [10]: 0.33
- fraction unbound [11]: 0.17
- IC50 (Cytochrome P450 2C19): > 33000 nM
- Cmax [12]: 252 ng/mL
- AUC(0-t) [13]: 132 ng·h/mL
- AUC [14]: 134.01 ng·h/mL
- Vd [15]: 10.8 L/kg
- half-life [16]: 119 min
- MRT [17]: 48.6 min
- Ki (Mu-type opioid receptor [18]): 0.514 nM
- EC50 (Mu-type opioid receptor [19]): 5.09 nM
- EC50 [20]: > 10000 nM
- EC50 [21]: > 10000 nM
- Activity (Rattus norvegicus [22]): Active
- ED50 (Rattus norvegicus [23]): 0.23 mg/kg
- Activity [24]: Non-Toxic
- Activity [25]: 92.17%
- concentration at 5 min [26]: 172 ng/g
- Kp at […] [27]: 4.61
- Drug uptake [28]: 58.6%
- Emax (Mu-type opioid receptor [3]): 1.6%
- Activity (Rattus norvegicus [29]): 50%
- half-life [30]: 7.16 min
